Measurements reported in paper PMC2989642 (The European journal of neuroscience, 2010).

Tests used:
[1] = biological target: α3β4 receptors (in the α5β2 KO) (Mus musculus, UniProt Q8R493+Q8R4G9); experiment: cell-based
[2] = biological target: α3β2 receptors (in the α5β4 KO) (Mus musculus, UniProt Q8R4G9+Q9ERK7); experiment: cell-based; format: cell-based
Sequence of α3β2 receptors (in the α5β4 KO) (Q8R4G9 26-499): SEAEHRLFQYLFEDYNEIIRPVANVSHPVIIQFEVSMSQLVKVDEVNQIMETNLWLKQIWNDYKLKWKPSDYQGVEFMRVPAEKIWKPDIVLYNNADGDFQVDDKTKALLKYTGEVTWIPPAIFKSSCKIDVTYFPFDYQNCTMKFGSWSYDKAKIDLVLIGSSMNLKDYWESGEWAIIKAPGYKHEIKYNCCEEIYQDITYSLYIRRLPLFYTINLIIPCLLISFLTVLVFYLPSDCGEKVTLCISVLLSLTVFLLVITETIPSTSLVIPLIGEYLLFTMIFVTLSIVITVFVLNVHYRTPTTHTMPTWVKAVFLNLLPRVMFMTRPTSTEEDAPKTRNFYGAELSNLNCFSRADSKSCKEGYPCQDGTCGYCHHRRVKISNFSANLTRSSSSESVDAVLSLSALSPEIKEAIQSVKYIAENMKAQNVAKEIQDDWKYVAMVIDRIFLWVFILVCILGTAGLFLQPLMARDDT
Sequence of α3β2 receptors (in the α5β4 KO) (Q9ERK7 26-501): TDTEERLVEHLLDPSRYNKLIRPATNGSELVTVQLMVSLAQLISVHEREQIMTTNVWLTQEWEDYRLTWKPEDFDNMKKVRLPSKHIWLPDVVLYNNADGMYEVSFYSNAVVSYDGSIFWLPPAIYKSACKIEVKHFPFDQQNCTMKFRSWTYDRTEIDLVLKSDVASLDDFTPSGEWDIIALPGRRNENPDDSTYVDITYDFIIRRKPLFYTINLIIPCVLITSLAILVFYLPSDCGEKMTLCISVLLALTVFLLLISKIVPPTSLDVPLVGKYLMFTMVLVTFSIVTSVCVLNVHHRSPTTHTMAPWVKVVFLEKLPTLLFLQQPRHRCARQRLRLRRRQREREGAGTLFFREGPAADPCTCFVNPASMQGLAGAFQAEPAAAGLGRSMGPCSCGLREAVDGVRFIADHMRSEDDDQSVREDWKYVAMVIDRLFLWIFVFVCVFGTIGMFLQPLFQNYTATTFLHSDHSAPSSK

Sequence of α3β4 receptors (in the α5β2 KO) (Q8R4G9 26-499): as the sequence (Q8R4G9 26-499) above
Sequence of α3β4 receptors (in the α5β2 KO) (Q8R493 21-495): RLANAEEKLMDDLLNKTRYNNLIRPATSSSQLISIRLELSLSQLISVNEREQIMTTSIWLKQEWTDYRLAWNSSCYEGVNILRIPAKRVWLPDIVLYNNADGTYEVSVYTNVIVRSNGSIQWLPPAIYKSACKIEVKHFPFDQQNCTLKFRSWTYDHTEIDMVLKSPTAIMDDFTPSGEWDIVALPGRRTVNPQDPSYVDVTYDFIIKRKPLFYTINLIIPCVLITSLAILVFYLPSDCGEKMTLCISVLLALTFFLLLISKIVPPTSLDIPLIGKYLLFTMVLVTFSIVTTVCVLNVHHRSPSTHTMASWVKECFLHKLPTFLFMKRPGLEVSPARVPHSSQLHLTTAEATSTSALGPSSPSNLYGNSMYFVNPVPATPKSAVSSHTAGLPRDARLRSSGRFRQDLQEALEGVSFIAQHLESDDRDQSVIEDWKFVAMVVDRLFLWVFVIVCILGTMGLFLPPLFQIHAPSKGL

Substance: α-conotoxin AuIB
- recovery of the inhibition [1]: Fast and full recovery
- effect on currents induced by 300 μM ACh [2]: did not affect
